pIC50: −log10 of the molar value.
What was measured:
Histone deacetylase = experiment: Inhibition of HDAC in human HeLa cell nuclear extract using Boc-Lys (acetyl)-AMC as substrate preincubated for 5 mins followed by substrate addition measured after 30 mins by fluorescence assay; format: protein assay
Jurkat = experiment: Antiproliferative activity against human Jurkat cells after 48 hrs by MTT assay; format: functional, cell-based
HeLa = experiment: cells; settings: Homo sapiens, 48 h
[1] = Antiproliferative activity against human SK-N-BE(2) cells after 48 hrs by MTT assay; format: functional, cell-based; settings: SKNBE2, 48 h
U-937 = experiment: Antiproliferative activity against human U937 cells after 48 hrs by MTT assay; format: functional, cell-based; settings: U-937, 48 h
HEL = experiment: cells; settings: Homo sapiens, 48 h
Description: Antiproliferative activity against human HEL cells after 48 hrs by MTT assay

MOLT-4 = experiment: Antiproliferative activity against human MOLT4 cells after 48 hrs by MTT assay; format: functional, cell-based; settings: MOLT-4, 48 h
Histone deacetylase 8 = biological target: T1, Histone deacetylase 8 (Homo sapiens, UniProt Q9BY41); experiment: Inhibition of HDAC8 (unknown origin) using Ac-Leu-GlyLys(Ac)-AMC as substrate preincubated for 5 mins followed by substrate addition measured after 30 mins by fluorescence assay
T1 sequence (Q9BY41 whole entry): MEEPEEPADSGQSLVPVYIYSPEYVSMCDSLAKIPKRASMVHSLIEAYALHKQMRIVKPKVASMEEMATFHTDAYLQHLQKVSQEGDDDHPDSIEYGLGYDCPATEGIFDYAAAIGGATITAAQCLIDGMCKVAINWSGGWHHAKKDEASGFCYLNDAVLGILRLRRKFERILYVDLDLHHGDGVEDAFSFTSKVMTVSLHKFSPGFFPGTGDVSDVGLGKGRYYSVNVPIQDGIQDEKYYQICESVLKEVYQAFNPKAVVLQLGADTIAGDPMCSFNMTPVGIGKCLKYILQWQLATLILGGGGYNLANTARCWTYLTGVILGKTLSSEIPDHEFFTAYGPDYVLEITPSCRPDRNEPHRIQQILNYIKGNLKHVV

Histone deacetylase 11 = biological target: T2, Histone deacetylase 11 (Homo sapiens, UniProt Q96DB2); experiment: Inhibition of HDAC11 (unknown origin) using Ac-Leu-GlyLys(Ac)-AMC as substrate preincubated for 5 mins followed by substrate addition measured after 30 mins by fluorescence assay
T2 sequence (Q96DB2 whole entry): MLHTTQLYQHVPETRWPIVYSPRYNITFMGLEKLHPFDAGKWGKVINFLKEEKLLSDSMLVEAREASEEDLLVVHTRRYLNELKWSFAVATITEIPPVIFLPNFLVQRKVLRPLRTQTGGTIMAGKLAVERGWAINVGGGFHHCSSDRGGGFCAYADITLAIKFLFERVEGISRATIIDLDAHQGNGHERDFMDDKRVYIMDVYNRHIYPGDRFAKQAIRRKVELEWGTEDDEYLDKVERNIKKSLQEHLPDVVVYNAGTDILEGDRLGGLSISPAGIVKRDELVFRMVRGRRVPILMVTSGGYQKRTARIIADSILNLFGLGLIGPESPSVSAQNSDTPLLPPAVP

Histone deacetylase 1 = Histone deacetylase 1 (Homo sapiens, UniProt Q13547); experiment: Inhibition of HDAC1 (unknown origin) using Ac-Leu-GlyLys(Ac)-AMC as substrate preincubated for 5 mins followed by substrate addition measured after 30 mins by fluorescence assay
Chain of Histone deacetylase 1 (Q13547 whole entry): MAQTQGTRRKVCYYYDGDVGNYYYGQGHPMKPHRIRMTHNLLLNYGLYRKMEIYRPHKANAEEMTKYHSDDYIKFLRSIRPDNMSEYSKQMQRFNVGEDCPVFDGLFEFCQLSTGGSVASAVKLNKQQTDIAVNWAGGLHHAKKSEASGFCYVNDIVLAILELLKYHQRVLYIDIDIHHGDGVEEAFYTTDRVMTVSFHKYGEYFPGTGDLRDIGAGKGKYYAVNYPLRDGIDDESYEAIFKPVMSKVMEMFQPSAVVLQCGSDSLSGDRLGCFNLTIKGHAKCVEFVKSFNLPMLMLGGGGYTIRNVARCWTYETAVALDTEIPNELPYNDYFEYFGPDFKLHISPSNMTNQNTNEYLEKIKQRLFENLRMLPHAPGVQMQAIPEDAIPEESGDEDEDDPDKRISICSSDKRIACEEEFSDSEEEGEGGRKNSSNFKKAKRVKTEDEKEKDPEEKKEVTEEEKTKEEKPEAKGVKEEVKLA

[2] = biological target: T3, Protein deacetylase HDAC6 (Homo sapiens, UniProt Q9UBN7); experiment: Inhibition of HDAC6 (unknown origin) using Ac-Leu-GlyLys(Ac)-AMC as substrate preincubated for 5 mins followed by substrate addition measured after 30 mins by fluorescence assay
T3 sequence (Q9UBN7 whole entry): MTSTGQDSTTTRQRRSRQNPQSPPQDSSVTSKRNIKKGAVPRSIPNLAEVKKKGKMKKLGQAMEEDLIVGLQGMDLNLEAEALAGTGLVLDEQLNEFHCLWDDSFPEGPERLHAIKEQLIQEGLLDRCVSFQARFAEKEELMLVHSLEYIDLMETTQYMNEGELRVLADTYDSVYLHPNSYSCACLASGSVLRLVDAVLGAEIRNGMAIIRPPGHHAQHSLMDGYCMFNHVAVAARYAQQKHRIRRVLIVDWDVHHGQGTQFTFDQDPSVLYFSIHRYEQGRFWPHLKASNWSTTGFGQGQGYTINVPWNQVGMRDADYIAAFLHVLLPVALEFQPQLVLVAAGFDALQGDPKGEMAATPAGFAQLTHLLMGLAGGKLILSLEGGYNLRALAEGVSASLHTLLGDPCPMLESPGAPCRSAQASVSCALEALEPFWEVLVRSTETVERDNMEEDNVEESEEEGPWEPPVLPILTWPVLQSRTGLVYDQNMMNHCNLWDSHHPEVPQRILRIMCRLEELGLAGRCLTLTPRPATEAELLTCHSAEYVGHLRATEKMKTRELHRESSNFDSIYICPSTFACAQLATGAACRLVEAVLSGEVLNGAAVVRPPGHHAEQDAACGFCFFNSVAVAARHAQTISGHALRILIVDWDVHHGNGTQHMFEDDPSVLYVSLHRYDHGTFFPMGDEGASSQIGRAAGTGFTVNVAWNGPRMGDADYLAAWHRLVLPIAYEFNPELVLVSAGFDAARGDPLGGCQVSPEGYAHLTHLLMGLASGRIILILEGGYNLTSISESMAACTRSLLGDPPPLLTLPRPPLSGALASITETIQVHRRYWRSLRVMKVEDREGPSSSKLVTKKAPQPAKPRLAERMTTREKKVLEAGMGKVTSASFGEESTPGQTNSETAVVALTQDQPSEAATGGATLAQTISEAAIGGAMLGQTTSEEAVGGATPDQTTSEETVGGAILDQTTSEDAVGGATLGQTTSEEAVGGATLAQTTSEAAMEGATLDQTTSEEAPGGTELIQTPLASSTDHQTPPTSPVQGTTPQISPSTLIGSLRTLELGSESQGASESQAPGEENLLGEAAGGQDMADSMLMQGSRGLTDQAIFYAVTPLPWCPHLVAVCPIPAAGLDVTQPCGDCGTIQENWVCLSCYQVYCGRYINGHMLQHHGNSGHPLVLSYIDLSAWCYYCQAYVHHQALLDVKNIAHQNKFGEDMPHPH

O=C(/C=C/c1ccc(C(=O)NO)cc1)N[C@@H](Cc1c[nH]c2ccccc12)C(=O)Nc1ccccc1Cl gave an IC50 (Histone deacetylase) of 57.1 nM.

In the case of CCNC(=O)[C@H](Cc1c[nH]c2ccccc12)NC(=O)/C=C/c1ccc(C(=O)NO)cc1, the IC50 (Histone deacetylase) was 112.1 nM.

In the case of O=C(/C=C/c1ccc(C(=O)NO)cc1)N[C@@H](Cc1c[nH]c2ccccc12)C(=O)Nc1ccc(F)cc1, the IC50 (Histone deacetylase) was 2 nM, the pIC50 (Jurkat) was 6.01 and the pIC50 (HeLa) was 5.80. For the same molecule, the pIC50 [1] was 5.88, the pIC50 (U-937) was 6.20 and the pIC50 (HEL) was 6.00. For the same molecule, the pIC50 (MOLT-4) was 6.08.

O=C(/C=C/c1ccc(C(=O)NO)cc1)N[C@@H](Cc1c[nH]c2ccccc12)C(=O)Nc1ccccc1 showed an IC50 (Histone deacetylase) of 7.6 nM.

Work on CCCCNC(=O)[C@H](Cc1c[nH]c2ccccc12)NC(=O)/C=C/c1ccc(C(=O)NO)cc1 yielded an IC50 (Histone deacetylase) of 84.8 nM.

In the case of CC(C)(C)NC(=O)[C@H](Cc1c[nH]c2ccccc12)NC(=O)/C=C/c1ccc(C(=O)NO)cc1, the IC50 (Histone deacetylase) was 165.5 nM.

With O=C(/C=C/c1ccc(C(=O)NO)cc1)N[C@@H](Cc1c[nH]c2ccccc12)C(=O)NCc1ccccc1 the IC50 (Histone deacetylase) was 37.3 nM.

Work on Cc1cc(C)c(NC(=O)[C@H](Cc2c[nH]c3ccccc23)NC(=O)/C=C/c2ccc(C(=O)NO)cc2)c(C)c1 yielded an IC50 (Histone deacetylase) of 22.2 nM.

For O=C(/C=C/c1ccc(C(=O)NO)cc1)N[C@@H](Cc1c[nH]c2ccccc12)C(=O)Nc1ccc(I)cc1, the IC50 (Histone deacetylase) was 29.5 nM.

For O=C(/C=C/c1ccc(C(=O)NO)cc1)N[C@@H](Cc1c[nH]c2ccccc12)C(=O)NCCc1ccccc1, the IC50 (Histone deacetylase) was 21.8 nM.

O=C(/C=C/c1ccc(C(=O)NO)cc1)N[C@@H](Cc1c[nH]c2ccccc12)C(=O)Nc1cccc2ccccc12 gave an IC50 (Histone deacetylase) of 59.5 nM.

In the case of O=C(/C=C/c1ccc(C(=O)NO)cc1)N[C@@H](Cc1c[nH]c2ccccc12)C(=O)NC1CCCC1, the IC50 (Histone deacetylase) was 249.1 nM.

For CC(C)CNC(=O)[C@H](Cc1c[nH]c2ccccc12)NC(=O)/C=C/c1ccc(C(=O)NO)cc1, the IC50 (Histone deacetylase) was 311.9 nM.

With Cc1ccc(NC(=O)[C@H](Cc2c[nH]c3ccccc23)NC(=O)/C=C/c2ccc(C(=O)NO)cc2)cc1 the IC50 (Histone deacetylase) was 22.5 nM.

With O=C(/C=C/c1ccc(C(=O)NO)cc1)N[C@@H](Cc1c[nH]c2ccccc12)C(=O)Nc1ccc(Br)cc1 the IC50 (Histone deacetylase) was 2 nM, the pIC50 (Histone deacetylase 8) was 6.45 and the pIC50 (Histone deacetylase 11) was 6.75. The pIC50 (Jurkat) was 6.11, the pIC50 (HeLa) was 5.92 and the pIC50 (Histone deacetylase 1) was 7.34. The pIC50 [1] was 6.21, the pIC50 [2] was 6.90 and the pIC50 (U-937) was 6.29. It also gave a pIC50 (HEL) of 6.36 and a pIC50 (MOLT-4) of 6.33.

With O=C(/C=C/c1ccc(C(=O)NO)cc1)N[C@@H](Cc1c[nH]c2ccccc12)C(=O)Nc1ccncc1 the IC50 (Histone deacetylase) was 36.9 nM.

With O=C(CCCCCCC(=O)Nc1ccccc1)NO [VORINOSTAT] the pIC50 (HeLa) was 5.74 and the pIC50 (HEL) was 6.10.

Work on O=C(/C=C/c1ccc(C(=O)NO)cc1)N[C@@H](Cc1c[nH]c2ccccc12)C(=O)NC1CC1 yielded an IC50 (Histone deacetylase) of 268.9 nM.

For O=C(/C=C/c1ccc(C(=O)NO)cc1)N[C@@H](Cc1c[nH]c2ccccc12)C(=O)Nc1ccc(Cl)cc1, the IC50 (Histone deacetylase) was 5.7 nM, the pIC50 (Histone deacetylase 8) was 7.33 and the pIC50 (Histone deacetylase 11) was 7.80. The pIC50 (Jurkat) was 5.57, the pIC50 (HeLa) was 5.84 and the pIC50 (Histone deacetylase 1) was 7.26. The pIC50 [1] was 5.80, the pIC50 [2] was 7.90 and the pIC50 (U-937) was 6.03. It also gave a pIC50 (HEL) of 5.94 and a pIC50 (MOLT-4) of 6.17.

COc1ccc(NC(=O)[C@H](Cc2c[nH]c3ccccc23)NC(=O)/C=C/c2ccc(C(=O)NO)cc2)cc1 showed an IC50 (Histone deacetylase) of 35.8 nM.

For O=C(/C=C/c1ccc(C(=O)NO)cc1)N[C@@H](Cc1c[nH]c2ccccc12)C(=O)Nc1cccc(Cl)c1, the IC50 (Histone deacetylase) was 8.1 nM, the pIC50 (Histone deacetylase 8) was 6.88 and the pIC50 (Histone deacetylase 11) was 7.12. It also gave a pIC50 (Jurkat) of 6.40, a pIC50 (HeLa) of 5.78 and a pIC50 (Histone deacetylase 1) of 7.64. For the same molecule, the pIC50 [1] was 6.22, the pIC50 [2] was 7.29 and the pIC50 (U-937) was 6.18. It also gave a pIC50 (HEL) of 6.31 and a pIC50 (MOLT-4) of 6.17.
